Patent US6946466B2, “Aromatic sulfonamides as peroxynitrite-rearrangement catalysts” (Schering AG, priority 2003, dated 2005)

System: not listed separately
Assay: DHR oxidation assay (oxidation of dihydrorhodamine to rhodamine by peroxynitrite)
Format: biochemical
Conditions: rhodamine fluorescence 485/520 nm, neutral pH
Experimental: Oxidation of Dihydrorhodamine to Rhodamine
The concentration of peroxynitrite is determined by reaction with dihydrorhodamine (DHR) to give rhodamine. The rhodamine fluorescence emission is measured at 520 nm after excitation with light of a wavelength of 485 nm. Catalytic conversion of peroxynitrite by a test substance leads to a decrease in the peroxynitrite concentration and thus also to a decrease in the rhodamine fluorescence, because less DHR can be converted into rhodamine. The search for peroxynitrite-degrading catalysts is carried out at neutral pH. Peroxynitrite is stable for only a few seconds at neutral pH. It is therefore necessary for peroxynitrite to be kept alkaline until contacted with the test substance and DHR as detection reagent. The search for catalysts takes place by rapid mixing of the following components:
10 μl of 10 μM DHR; • 100 μm diethylenetriaminepentaacetic acid in 75 mM Na phosphate buffer at pH 5.6
5 μl of peroxynitrite in 9 mM NaOH
0.75 μl test substance in 30% DMSO/H2O
The measurement takes place in a standard microtiter plate fluorescence measuring apparatus

| IC50 [µM] | Compound |
| --- | --- |
| 1.1 | Cc1noc(C)c1S(=O)(=O)Nc1ccc(N2CCCC2)cc1 [Example 1, 3,5-dimethylisoxazole-4-sulfonic acid 4-pyrrolidin-1-ylphenylamide] |
| 2.4 | Cc1noc(C)c1S(=O)(=O)Nc1ccc(N2CCCC2)cc1C(F)(F)F [Example 2, 3,5-dimethylisoxazole-4-sulfonic acid 4-pyrrolidin-1-yl-2-trifluoromethylphenylamide] |
| 0.95 | Cc1noc(C)c1S(=O)(=O)Nc1ccc(N2CCCCC2)cc1 [Example 3, 3,5-dimethylisoxazole-4-sulfonic acid 4-piperidin-1-ylphenylamide] |
| 1.1 | O=S(=O)(Nc1ccc(N2CCCCC2)cc1)c1cccc2cccnc12 [Example 4, quinoline-8-sulfonic acid 4-piperidin-1-ylphenylamide] |
| 8.1 | COc1cc(N2CCCC2)ccc1NS(=O)(=O)c1cccs1 [Example 5, thiophene-2-sulfonic acid 2-methoxy-4-pyrrolidin-1-ylphenylamide] |
| 1.5 | O=S(=O)(Nc1ccc(N2CCCC2)cc1)c1cccc2cccnc12 [Example 6, quinoline-8-sulfonic acid 4-pyrrolidin-1-ylphenylamide] |
| 1.9 | CN1CCN(c2ccc(NS(=O)(=O)c3cccs3)cc2)CC1 [Example 7, thiophene-2-sulfonic acid 4-(4-methyl-piperazin-1-yl)phenylamide] |
| 1.6 | CN(C)c1ccc(NS(=O)(=O)c2cccs2)c([N+](=O)[O-])c1 [Example 8, thiophene-2-sulfonic acid 4-dimethylamino-2-nitrophenylamide] |
| 2 | Cc1noc(C)c1S(=O)(=O)Nc1ccc(N(C)C)cc1[N+](=O)[O-] [Example 9, 3,5-dimethylisoxazole-4-sulfonic acid 4-dimethylamino-2-nitrophenylamide] |

System: primary neuronal cultures from neonatal rat cerebellum
Assay: SIN-1 damage assay with primary neuronal cultures from neonatal rat cerebellum (Cytotoxicity assay)
Format: cell-based
Conditions: protection against SIN-1 damage, test substance 1 h before SIN-1, Alamar blue readout, read-out: Cytotoxicity assay ED50
Excerpt: SIN-1 Damage Assay with Primary Neuronal Cultures from Neonatal Rat Cerebellum
A primary culture of cells from neonatal rat cerebellum is set up for in vitro testing of substances for neuroprotection against damage induced by peroxy-nitrite. The measurement of cell death or survival of neurons in this culture takes place indirectly through a measurement of the conversion of the dye Alamar blue into its reduced fluorescent form. The peroxynitrite donor SIN-1 (3-morpholinosydnonimine) is used for the damage.
To obtain the cells, Wistar rats (P8) are sacrificed by decapitation, the cerebella are obtained, the meninges are removed from the cerebellum (HBSS (GIBCO, 14025-050) 4° C.), cut up and transferred into a 15 ml Falcon tube, the supernatant is aspirated off, and then the cerebella are trypsinized by adding 500 μl of trypsin/EDTA solution (GIBCO #2530-054)/cerebellum. After incubation (20 min, 37° C.), the trypsinized cerebella are washed 3× with 10 ml of HBSS. This is followed by tritration by addition of 500 μl of 0.05% strength DNAsel (BOEHRINGER MANNHEIM, #14953000) per cerebellum. Using a 5 ml pipette, then a flame-polished Pasteur pipette and finally (if necessary) a drawn-out flame-polished Pasteur pipette, the cells are isolated and mixed with 10 ml of complete medium (100 ml of Neurobasal (GIBCO #21103-049), 1 ml of B27 supplement (GIBCO #17504-044), 0.4 ml of pen/strep (10 000 IU/ml/10 000 UG/ml) (GIBCO #15140-160), 0.8 ml of KCl stock solution (MERCK, 1.04936.0500), 1 ml of L-glutamine (100×-200 mM) (GIBCO #15140-106). The isolated cells are then centrifuged (10 min at 600 rpm), washed 1× with complete medium and resuspended in 20 ml of complete medium, counted and diluted to 2×10^6 ml. 100 μl of complete medium are introduced into each well of a 96-well microtiter plate, and 100 μl of cell suspension are added (=day 1 in vitro). The microtiter plates are previously coated in the following way: 50 μl of poly-L-lysine (MW 70-105 kD) (SIGMA #P-6282) are applied to each well, and the plates are then incubated in an incubator for about 90 min. Before the cells are plated out, the solution is aspirated off again and washed 2× with HBSS and with sterile double-distilled water. 24 h after plating out, the cells are damaged by addition of SIN-1. Test substances are applied 1 h before addition of SIN-1 (single concentration of 10 or 30 μm, or as concentration series, CALBIOCHEM, 567028). Cell function is measured on day 2 (day2 in vitro) with Alamar blue (10 μl/well) (BIOSOURCE INT., DAL1100). Incubation for 3 hours is followed by measurement in a fluorescence reader (Victor, Wallac, extinction 544 nm/emission 590 nm). IC50 values are calculated by the Excel plug-in XLfit.

| Compound | EC50 [µM] |
| --- | --- |
| Cc1noc(C)c1S(=O)(=O)Nc1ccc(N2CCCC2)cc1 [Example 1, 3,5-dimethylisoxazole-4-sulfonic acid 4-pyrrolidin-1-ylphenylamide] | 4.4 |
| Cc1noc(C)c1S(=O)(=O)Nc1ccc(N2CCCC2)cc1C(F)(F)F [Example 2, 3,5-dimethylisoxazole-4-sulfonic acid 4-pyrrolidin-1-yl-2-trifluoromethylphenylamide] | 6.6 |
| Cc1noc(C)c1S(=O)(=O)Nc1ccc(N2CCCCC2)cc1 [Example 3, 3,5-dimethylisoxazole-4-sulfonic acid 4-piperidin-1-ylphenylamide] | 5.3 |
| O=S(=O)(Nc1ccc(N2CCCCC2)cc1)c1cccc2cccnc12 [Example 4, quinoline-8-sulfonic acid 4-piperidin-1-ylphenylamide] | 8.7 |
| COc1cc(N2CCCC2)ccc1NS(=O)(=O)c1cccs1 [Example 5, thiophene-2-sulfonic acid 2-methoxy-4-pyrrolidin-1-ylphenylamide] | 5.9 |
| O=S(=O)(Nc1ccc(N2CCCC2)cc1)c1cccc2cccnc12 [Example 6, quinoline-8-sulfonic acid 4-pyrrolidin-1-ylphenylamide] | 5.2 |
| CN1CCN(c2ccc(NS(=O)(=O)c3cccs3)cc2)CC1 [Example 7, thiophene-2-sulfonic acid 4-(4-methyl-piperazin-1-yl)phenylamide] | 5.7 |
| CN(C)c1ccc(NS(=O)(=O)c2cccs2)c([N+](=O)[O-])c1 [Example 8, thiophene-2-sulfonic acid 4-dimethylamino-2-nitrophenylamide] | 6.4 |
| Cc1noc(C)c1S(=O)(=O)Nc1ccc(N(C)C)cc1[N+](=O)[O-] [Example 9, 3,5-dimethylisoxazole-4-sulfonic acid 4-dimethylamino-2-nitrophenylamide] | 8.6 |

System: not listed separately
Assay: Kinetics of the conversion of peroxynitrite into nitrate by UV spectrometry (stopped flow, 301 nm)
Format: biochemical
Conditions: peroxynitrite rearrangement relative to spontaneous decomposition without catalyst; catalyst added in one-tenth the stoichiometric amount; UV 301 nm
Experimental: Measurement of the Kinetics of the Conversion of Peroxynitrite into Nitrate by UV Spectrometry
The following are used: a UV spectrometer • a stopped flow device with slotted-on cuvette laboratory apparatus for volumetric work reagents (buffers, peroxynitrite solution, catalysts)
The peroxynitrite content of the concentrated peroxynitrite solution is determined. A molar extinction coefficient of ε=1 670 is used as basis. The solution is diluted with water to reach an absorption of about 1.6 at the observation wavelength of 301 nm. The pH of the stock solution produced in this way should not fall below 11.
A solution of the catalyst to be investigated is prepared in phosphate buffer appropriate for the peroxynitrite concentration set, in such a way that, taking account of the given conditions in the stopped flow device, the desired amounts of catalyst solution and peroxynitrite can be brought together for reaction. The buffer of the catalyst solution must have sufficient capacity for it to be possible for the peroxynitrite solution, which is still strongly alkaline, to be adjusted to, and maintained at, the desired pH. The catalysts are added in one-tenth the stoichiometric amount (FIG. 1).
The metering syringes of the stopped flow system are charged with the two solutions and used to charge the cuvette which is present in the UV spectrometer. The absorptions at 301 nm are measured simultaneously. The rearrangement of peroxynitrite to nitrate results in the decrease in the absorption, which assumes a constant value after some time. The rearrangement is complete at this time, and the data recording is stopped.
The measured data are analyzed, and the peroxynitrite concentration can be calculated from the characteristic kinetic data of the plot resulting therefrom. […] In order to take account of the spontaneous decomposition of peroxynitrite, for each peroxynitrite preparation used initially the decomposition behavior of the peroxynitrite solution is found on addition of the buffer without catalyst content, and the relation between the characteristic data thereof and those obtained from a measurement with catalyst is found. [formula]

| Compound | Rate constant |
| --- | --- |
| Cc1noc(C)c1S(=O)(=O)Nc1ccc(N2CCCC2)cc1 [Example 1, 3,5-dimethylisoxazole-4-sulfonic acid 4-pyrrolidin-1-ylphenylamide] | 1.1 |
| Cc1noc(C)c1S(=O)(=O)Nc1ccc(N2CCCC2)cc1C(F)(F)F [Example 2, 3,5-dimethylisoxazole-4-sulfonic acid 4-pyrrolidin-1-yl-2-trifluoromethylphenylamide] | 1.3 |
| Cc1noc(C)c1S(=O)(=O)Nc1ccc(N2CCCCC2)cc1 [Example 3, 3,5-dimethylisoxazole-4-sulfonic acid 4-piperidin-1-ylphenylamide] | 1.4 |
| O=S(=O)(Nc1ccc(N2CCCCC2)cc1)c1cccc2cccnc12 [Example 4, quinoline-8-sulfonic acid 4-piperidin-1-ylphenylamide] | 1.4 |
| COc1cc(N2CCCC2)ccc1NS(=O)(=O)c1cccs1 [Example 5, thiophene-2-sulfonic acid 2-methoxy-4-pyrrolidin-1-ylphenylamide] | 1.9 |
| O=S(=O)(Nc1ccc(N2CCCC2)cc1)c1cccc2cccnc12 [Example 6, quinoline-8-sulfonic acid 4-pyrrolidin-1-ylphenylamide] | 1.2 |
| CN1CCN(c2ccc(NS(=O)(=O)c3cccs3)cc2)CC1 [Example 7, thiophene-2-sulfonic acid 4-(4-methyl-piperazin-1-yl)phenylamide] | 1.3 |
| CN(C)c1ccc(NS(=O)(=O)c2cccs2)c([N+](=O)[O-])c1 [Example 8, thiophene-2-sulfonic acid 4-dimethylamino-2-nitrophenylamide] | 1.6 |
| Cc1noc(C)c1S(=O)(=O)Nc1ccc(N(C)C)cc1[N+](=O)[O-] [Example 9, 3,5-dimethylisoxazole-4-sulfonic acid 4-dimethylamino-2-nitrophenylamide] | 1.6 |
